Biological target: T1, His-EBNA1 (DNA binding domain of EBNA1, amino acids 459-607) (Epstein-Barr virus, UniProt P03211)
T1 construct: made in house; host or cells: E. coli
Experiment: Inhibition of 5'-biotin-oPL4624 binding to His-EBNA1 using Alpha Screen technology
Summary of the method: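 AlphaScreen with 15 nM E. coli-expressed His-EBNA1 (aa 459-607), 0.2 nM biotinylated oPL4624 DNA and 5 μg/mL donor and acceptor beads in 25 mM Tris pH 7.2, 160 mM NaCl, 1 mM MgCl2; compound 3.2 nM–100 μM final. Read after 2 h at RT; inhibition normalised to no-EBNA1 wells, one-site dose-response fit.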

T1 sequence (P03211 459-607): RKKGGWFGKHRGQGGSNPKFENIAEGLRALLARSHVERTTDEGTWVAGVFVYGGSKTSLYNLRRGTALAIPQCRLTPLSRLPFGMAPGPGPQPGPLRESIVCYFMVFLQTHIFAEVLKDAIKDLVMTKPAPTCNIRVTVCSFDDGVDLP

O=C(O)c1cccc(C#Cc2ccc(CN3CCN(C(=O)C4CC4)CC3)cc2)c1-c1ccc2cc[nH]c2c1 [Entry 166]
IC50: 1 to 10 µM

O=C(O)c1cccc(C#Cc2ccc(CN3CCNCC3)cc2)c1-c1ccc2cc[nH]c2c1 [Entry 167]
IC50: 10 to 100 µM

O=C(O)c1cccc(C#Cc2ccc(CN3CCN(S(=O)(=O)c4ccccc4)CC3)cc2)c1-c1ccc2cc[nH]c2c1 [Entry 168]
IC50: 1 to 10 µM

O=C(O)c1cccc(C#Cc2ccc(CNC3CCS(=O)(=O)CC3)cc2)c1-c1ccc2cc[nH]c2c1 [Entry 169]
IC50: 10 to 100 µM

O=C(O)c1cccc(C#Cc2ccc(CN3CCN(C4CCCC4)CC3)cc2)c1-c1ccc2cc[nH]c2c1 [Entry 170]
IC50: 10 to 100 µM

CN(C)C(=O)N1CCN(Cc2ccc(C#Cc3cccc(C(=O)O)c3-c3ccc4cc[nH]c4c3)cc2)CC1 [Entry 171]
IC50: 10 to 100 µM

O=C(O)c1cccc(C#Cc2ccc(CN3CCN(c4cnccn4)CC3)cc2)c1-c1ccc2cc[nH]c2c1 [Entry 172]
IC50: 1 to 10 µM

O=C(O)c1cccc(C#Cc2ccc(CN3CCN(c4nccs4)CC3)cc2)c1-c1ccc2cc[nH]c2c1 [Entry 173]
IC50: 1 to 10 µM

Nc1nc2c(s1)C[C@@H](NCc1ccc(C#Cc3cccc(C(=O)O)c3-c3ccc4cc[nH]c4c3)cc1)CC2 [Entry 174]
IC50: 1 to 10 µM

Nc1nc2c(s1)C[C@H](NCc1ccc(C#Cc3cccc(C(=O)O)c3-c3ccc4cc[nH]c4c3)cc1)CC2 [Entry 175]
IC50: 1 to 10 µM

CN1CCN(Cc2ccc(C#Cc3cccc(C(=O)O)c3-c3cnc4[nH]ccc4c3)cc2)CC1 [Entry 176]
IC50: 10 to 100 µM

COC1CCN(Cc2ccc(C#Cc3cccc(C(=O)O)c3-c3cnc4[nH]ccc4c3)cc2)CC1 [Entry 177]
IC50: 100 to 1000 µM

COC1CCN(Cc2ccc(C#Cc3cccc(C(=O)O)c3-c3ccc4[nH]ccc4c3)cc2)CC1 [Entry 178]
IC50: 10 to 100 µM

CS(=O)(=O)N1CCN(Cc2ccc(C#Cc3cccc(C(=O)O)c3-c3ccc4[nH]ccc4c3)cc2)CC1 [Entry 179]
IC50: 10 to 100 µM

CS(=O)(=O)N1CCN(Cc2ccc(C#Cc3cccc(C(=O)O)c3-c3cnc4[nH]ccc4c3)cc2)CC1 [Entry 180]
IC50: 1 to 10 µM

O=C(O)c1cccc(C#Cc2ccc(CN3CCC(F)(F)CC3)cc2)c1-c1ccc2[nH]ccc2c1 [Entry 181]
IC50: 1 to 10 µM

CN1CCN(Cc2ccc(C#Cc3cccc(C(=O)O)c3-c3ccc4[nH]ccc4c3)cc2)CC1 [Entry 182]
IC50: 1 to 10 µM

CCS(=O)(=O)N1CCN(Cc2ccc(C#Cc3cccc(C(=O)O)c3-c3ccc4cc[nH]c4c3)cc2)CC1 [Entry 183]
IC50: 10 to 100 µM

O=C(O)c1cccc(C#Cc2ccc(OC3CCS(=O)(=O)CC3)cc2)c1-c1ccc2[nH]ccc2c1 [Entry 184]
IC50: 1 to 10 µM

O=C(O)c1cccc(C#Cc2ccc(OC3CCS(=O)(=O)CC3)cc2)c1-c1ccc2cn[nH]c2c1 [Entry 185]
IC50: 10 to 100 µM

O=C(O)c1cccc(C#Cc2ccc(COC3CCOCC3)cc2F)c1-c1ccc2cc[nH]c2c1 [Entry 186]
IC50: 1 to 10 µM

O=C(O)c1cccc(C#Cc2ccc(COC3CCS(=O)(=O)CC3)cc2F)c1-c1ccc2cc[nH]c2c1 [Entry 187]
IC50: 10 to 100 µM

CS(=O)(=O)N1CC2(CCN(Cc3ccc(C#Cc4cccc(C(=O)O)c4-c4ccc5cc[nH]c5c4)cc3)CC2)C1 [Entry 188]
IC50: 10 to 100 µM

CS(=O)(=O)N1CC2CN(Cc3ccc(C#Cc4cccc(C(=O)O)c4-c4ccc5cc[nH]c5c4)cc3)CC2C1 (stereo not shown) [Entry 189]
IC50: 10 to 100 µM

O=C(O)c1cccc(C#Cc2ccc(CN3CCN(S(=O)(=O)C4CC4)CC3)cc2)c1-c1ccc2cc[nH]c2c1 [Entry 190]
IC50: 10 to 100 µM

CC(C)S(=O)(=O)N1CCN(Cc2ccc(C#Cc3cccc(C(=O)O)c3-c3ccc4cc[nH]c4c3)cc2)CC1 [Entry 191]
IC50: 1 to 10 µM

CS(=O)(=O)N1CCC2(CC1)CN(Cc1ccc(C#Cc3cccc(C(=O)O)c3-c3ccc4cc[nH]c4c3)cc1)C2 [Entry 192]
IC50: 10 to 100 µM

O=C(O)c1cccc(C#Cc2ccc(OC3CCOCC3)cc2)c1-c1ccc2[nH]ccc2c1 [Entry 193]
IC50: 1 to 10 µM

CN(C)S(=O)(=O)NC(=O)c1cccc(C#Cc2ccc(COC3CCOCC3)cc2)c1-c1ccc2cc[nH]c2c1 [Entry 194]
IC50: 1 to 10 µM

CS(=O)(=O)NC(=O)c1cccc(C#Cc2ccc(COC3CCOCC3)cc2)c1-c1ccc2cc[nH]c2c1 [Entry 195]
IC50: 10 to 100 µM

C(#Cc1cccc(-c2nnn[nH]2)c1-c1ccc2cc[nH]c2c1)c1ccc(COC2CCOCC2)cc1 [Entry 196]
IC50: 1 to 10 µM

O=C(NCc1ccc(C#Cc2cccc(C(=O)O)c2-c2ccc3cc[nH]c3c2)cc1)c1ccccc1 [Entry 197]
IC50: 1 to 10 µM

O=C1CCC(C(=O)NCc2ccc(C#Cc3cccc(C(=O)O)c3-c3ccc4cc[nH]c4c3)cc2)CC1 [Entry 198]
IC50: < 1 µM

O=C1CCC(NC(=O)c2ccc(C#Cc3cccc(C(=O)O)c3-c3ccc4cc[nH]c4c3)cc2)CC1 [Entry 199]
IC50: < 1 µM

Nc1nc2c(s1)C[C@@H](NC(=O)c1ccc(C#Cc3cccc(C(=O)O)c3-c3ccc4cc[nH]c4c3)cc1)CC2 [Entry 200]
IC50: 1 to 10 µM

Nc1nc2c(s1)C[C@H](NC(=O)c1ccc(C#Cc3cccc(C(=O)O)c3-c3ccc4cc[nH]c4c3)cc1)CC2 [Entry 201]
IC50: 1 to 10 µM

CN1CCN(C(=O)c2ccc(C#Cc3cccc(C(=O)O)c3-c3ccc4cc[nH]c4c3)cc2)CC1 [Entry 202]
IC50: 10 to 100 µM

COC1CCN(C(=O)c2ccc(C#Cc3cccc(C(=O)O)c3-c3ccc4cc[nH]c4c3)cc2)CC1 [Entry 203]
IC50: 1 to 10 µM

CS(=O)(=O)N1CCN(Cc2ccc(C#Cc3cccc(C(=O)O)c3-c3ccc4cn[nH]c4c3)cc2)CC1 [Entry 204]
IC50: 10 to 100 µM

NS(=O)(=O)N1CCN(Cc2ccc(C#Cc3cccc(C(=O)O)c3-c3ccc4cc[nH]c4c3)cc2)CC1 [Entry 205]
IC50: 1 to 10 µM

Source: US10442763B2, “EBNA1 inhibitors and methods using same” (priority 2015, dated 2019)
